Some results are limits rather than exact numbers.

The source of these data is patent publication US7235560B2, “Pyrimidine derivative as selective COX-2 inhibitors” (priority 2002, dated 2007).

One assay deals with COX-1 (Homo sapiens, UniProt P23219). Put plainly: Microsomal assay, inhibition of COX-1. The format is biochemical.
In a further assay the target is T1, microsomal h-COX2 (Homo sapiens, UniProt P35354).
T1 construct: made in house; host or cells: baculovirus infected SF9 cells (microsomal preparation)
T1 sequence (P35354 18-604): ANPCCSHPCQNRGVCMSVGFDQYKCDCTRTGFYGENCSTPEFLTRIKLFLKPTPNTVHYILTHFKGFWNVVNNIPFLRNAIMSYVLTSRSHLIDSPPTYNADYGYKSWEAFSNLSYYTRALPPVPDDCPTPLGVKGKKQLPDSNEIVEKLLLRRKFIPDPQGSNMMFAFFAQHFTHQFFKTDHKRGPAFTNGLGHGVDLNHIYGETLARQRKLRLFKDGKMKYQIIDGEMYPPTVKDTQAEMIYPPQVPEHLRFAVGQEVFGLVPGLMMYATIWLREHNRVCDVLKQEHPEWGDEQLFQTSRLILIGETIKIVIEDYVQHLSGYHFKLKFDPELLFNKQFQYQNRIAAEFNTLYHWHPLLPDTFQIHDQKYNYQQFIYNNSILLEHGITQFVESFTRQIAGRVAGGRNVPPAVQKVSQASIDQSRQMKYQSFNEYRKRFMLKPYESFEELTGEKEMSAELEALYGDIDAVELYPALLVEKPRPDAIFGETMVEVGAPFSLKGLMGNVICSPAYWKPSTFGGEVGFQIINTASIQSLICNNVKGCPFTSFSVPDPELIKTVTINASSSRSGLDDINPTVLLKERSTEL
The experiment in a line: Microsomal assay, inhibition of h-COX2 (PGE2 by EIA). The format is biochemical. The conditions noted are these: microsomal preparation from baculovirus infected SF9 cells; 1 hour preincubation; 0.1 μM arachidonic acid; read-out: COX-2: IC50. Here is the method: Inhibitory activity against microsomal h-COX2 was assessed against a microsomal preparation from baculovirus infected SF9 cells. An aliquot of microsomal preparation was thawed slowly on ice and a 1/40,000 dilution prepared from it into the assay buffer (sterile water, degassed with argon containing 100 mM HEPES (pH 7.4), 10 mM EDTA (pH7.4), 1 mM phenol, 1 mM reduced glutathione, 20 mg/ml gelatin and 0.001 mM Hematin). Once diluted the enzyme solution was then sonicated for 5 seconds (Branson sonicator, setting 4, 1 cm tip) to ensure a homogeneous suspension. 155 μl enzyme solution was then added to each well of a 96-well microtitre plate containing either 5 μl test compound (40× required test concentration) or 5 μl DMSO for controls. Plates were then mixed and incubated at room temperature for 1 hour. Following the incubation period, 40 μl of 0.5 μM arachidonic acid was added to each well to give a final concentration of 0.1 μM. Plates were then mixed and incubated for exactly 10 minutes (room temperature) prior to addition of 25 μl 1M HCl (hydrochloric acid) to each well to stop the reaction. 25 μl of 1M NaOH (sodium hydroxide) was then added to each well to neutralise the solution prior to determination of PGE2 levels by enzyme immunoassay (EIA).
The following IC50 values for inhibition of COX-2 and COX-1 were obtained from the microsomal assay for compounds of the invention: […]

Sequence of COX-1 (P23219 24-599): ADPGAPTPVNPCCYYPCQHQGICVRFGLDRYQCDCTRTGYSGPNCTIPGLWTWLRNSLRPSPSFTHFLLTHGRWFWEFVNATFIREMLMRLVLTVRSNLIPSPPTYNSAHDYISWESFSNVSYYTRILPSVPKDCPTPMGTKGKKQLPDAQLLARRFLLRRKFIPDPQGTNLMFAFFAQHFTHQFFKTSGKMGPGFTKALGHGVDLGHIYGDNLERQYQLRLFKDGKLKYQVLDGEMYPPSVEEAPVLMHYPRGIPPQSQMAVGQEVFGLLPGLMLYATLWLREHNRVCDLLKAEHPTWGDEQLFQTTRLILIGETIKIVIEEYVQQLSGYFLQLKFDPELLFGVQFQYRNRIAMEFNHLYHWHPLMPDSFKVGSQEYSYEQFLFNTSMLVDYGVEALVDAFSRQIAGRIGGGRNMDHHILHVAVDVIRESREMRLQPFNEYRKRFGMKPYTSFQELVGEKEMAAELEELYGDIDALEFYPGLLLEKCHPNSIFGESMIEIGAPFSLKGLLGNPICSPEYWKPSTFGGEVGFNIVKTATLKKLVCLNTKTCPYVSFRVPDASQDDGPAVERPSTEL

As to `Cc1cc(-c2ccc(S(C)(=O)=O)cn2)nc(NCc2ccccc2)n1` [Example 1], the IC50 against COX-1 was 23.1 µM; on microsomal h-COX2, 51 nM.
Taken in the same sequence, the figures for `CS(=O)(=O)c1ccc(-c2cc(C(F)(F)F)nc(NC3CCCCC3)n2)nc1` [Example 5, Cyclohexyl-[4-(5-methanesulfonyl-pyridin-2-yl)-6-trifluoromethyl-pyrimidin-2-yl]-amine] were greater than 100 µM and 19 nM.
Taken in the same sequence, the figures for `Cc1cccc(CN(C)c2nc(-c3ccc(S(C)(=O)=O)cn3)cc(C(F)(F)F)n2)n1` [Example 3, [4-(5-Methanesulfonyl-pyridin-2-yl)-6-trifluoromethyl-pyrimidin-2-yl]-methyl-(6-methyl-pyridin-2-ylmethyl)-amine] were 67.1 µM and 5 nM.

As a reminder, the IC50 is the concentration that gives 50% inhibition.
